Measured values taken from patent US7094909B2, “HIV protease inhibitors, compositions containing the same, their pharmaceutical uses and materials for their synthesis” (priority 2001, dated 2006).
Read-outs that look alike come from different tables or passages of the source.

Columns and labels:
[1] = biological target: T1, HIV-1 protease (Q7S mutant form) (Human immunodeficiency virus type 1 group M subtype B, UniProt P04585, Q495S); assay: HIV-1 Protease RET assay; type: biochemical; conditions: Ave. Ki (nM), RET assay, Q7S enzyme, Morrison tight binding fit
T1 construct: made in house
Summary of the method: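 Ki values fitted with the Morrison tight-binding equation from steady-state RET cleavage (ex 340, em 490 nm) of 5 μM RE(EDANS)SQNYPIVQK(DABCYL)R. Buffer pH 4.8 acetate, 1M NaCl, 5 mM DTT, 1 mg/ml BSA, 10% DMSO; 2 nM Q7S mutant dimer, 37 °C, 12 min.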

[2] = test system: HIV-1 (HIV-1 RF, HIV-1 NL4-3) in CEM-SS / MT-2 cells; assay: Cytopathic effect (CPE) inhibition assay (XTT/MTT dye reduction); type: cell-based
Summary of the method: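 Readout is XTT reduction (A450, 4 h) after six days of culturing virus-infected (moi 0.025–0.819) or mock-infected CEM-SS/MT-2 cells, 2×10^4 per well, with half-log compound series. Antiviral EC50 and cytotoxic CC50 are relative to uninfected compound-free cells. Therapeutic index is CC50 divided by EC50.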

[3] = Human immunodeficiency virus 1, NL43, read-out: Ave CPE EC50
[4] = Human immunodeficiency virus 1, NL43, read-out: Ave CPE EC50 (mM)

Compound	Ki [1] [nM]	EC50 [2, 3] [nM]	EC50 [2, 4] [nM]
Cc1c(O)cccc1C(=O)N[C@@H](Cc1ccccc1)[C@H](O)C(=O)N1CSC(C)(C)[C@H]1C(=O)NCc1n[nH]c2ccccc12 [Example A44, 3-(2-Hydroxy-3-{[1-(3-hydroxy-2-methyl-phenyl)-methanoyl]-amino}-4-phenyl-butanoyl)-5,5-dimethyl-thiazolidine-4-carboxylic acid (1H-indazol-3-ylmethyl)-amide]	1.4	478	–
Cc1c(O)cccc1C(=O)N[C@@H](Cc1ccccc1)[C@H](O)C(=O)N1CSC(C)(C)[C@H]1C(=O)NCC1CCOC1 (stereo partly drawn) [Example A46, (R)-3-((2S,3S)-2-Hydroxy-3-{[1-(3-hydroxy-2-methyl-phenyl)-methanoyl]-amino}-4-phenyl-butanoyl)-5,5-dimethyl-thiazolidine-4-carboxylic acid (tetrahydro-furan-3-ylmethyl)-amide]	1.1	469	–
Cc1c(O)cccc1C(=O)N[C@@H](Cc1ccccc1)[C@H](O)C(=O)N1CSC(C)(C)[C@H]1C(=O)N[C@@H]1CCCc2occc21 [Example A47, 3-[2-Hydroxy-3-(3-hydroxy-2-methyl-benzoylamino)-4-phenyl-butyryl]-5,5-dimethyl-thiazolidine-4-carboxylic acid (4,5,6,7-tetrahydro-benzofuran-4-yl)-amide]	0.27	196	–
Cc1c(O)cccc1C(=O)N[C@@H](Cc1ccccc1)[C@H](O)C(=O)N1CSC(C)(C)[C@H]1C(=O)N[C@@H]1CCCc2sccc21 [Example A49, 3-[2-Hydroxy-3-(3-hydroxy-2-methyl-benzoylamino)-4-phenyl-butyryl]-5,5-dimethyl-thiazolidine-4-carboxylic acid (4,5,6,7-tetrahydro-benzo[b]thiophen-4-yl)-amide]	0.49	161	–
Cc1c(O)cccc1C(=O)N[C@@H](Cc1ccccc1)[C@H](O)C(=O)N1CSC(C)(C)[C@H]1C(=O)N[C@@H]1CCc2ncccc21 [Example A52, 3-[2-Hydroxy-3-(3-hydroxy-2-methyl-benzoylamine)-4-phenyl-butyryl]-5,5-dimethyl-thiazolidine-4-carboxylic acid (6,7-dihydro-5H-[1]pyrindin-5-yl)-amide]	0.51	456	–
Cc1c(O)cccc1C(=O)N[C@@H](Cc1ccccc1)[C@H](O)C(=O)N1CSC(C)(C)[C@H]1C(=O)NCc1oc2ccccc2c1C [Example A54, (R)-3-[(2S,3S)-2-Hydroxy-3-(3-hydroxy-2-methyl-benzoylamino)-4-phenyl-butyryl]-5,5-dimethyl-thiazolidine-4-carboxylic acid (3-methyl-benzofuran-2-ylmethyl)-amide]	4.5	1230	–
Cc1c(O)cccc1C(=O)N[C@@H](Cc1ccccc1)[C@H](O)C(=O)N1CSC(C)(C)[C@H]1C(=O)NN(C)c1ccccc1 [Example A57, N-{(1S,2S)-1-Benzyl-3-[(R)-5,5-dimethyl-4-(N′-methyl-N′-phenyl-hydrazinocarbonyl)-thiazolidin-3-yl]-2-hydroxy-3-oxo-propyl}-3-hydroxy-2-methyl-benzamide]	5.6	1530	–
Cc1c(O)cccc1C(=O)N[C@@H](Cc1ccccc1)[C@H](O)C(=O)N1CSC(C)(C)[C@H]1C(=O)NCc1ccc2c(c1)OC(F)(F)O2 [Example A59, (R)-3-((2S,3S)-2-Hydroxy-3-{[1-(3-hydroxy-2-methyl-phenyl)-methanoyl]-amino}-4-phenyl-butanoyl)-5,5-dimethyl-thiazolidine-4-carboxylic acid (2,2-difluoro-benzo[1,3]dioxol-5-ylmethyl)-amide]	0.19	–	417
Cc1c(O)cccc1C(=O)N[C@@H](Cc1ccccc1)[C@H](O)C(=O)N1CSC(C)(C)[C@H]1C(=O)NCc1cc2ccccc2[nH]1 [Example A61, (R)-3-[(2S,3S)-2-Hydroxy-3-(3-hydroxy-2-methyl-benzoylamino)-4-phenyl-butyryl]-5,5-dimethyl-thiazolidine-4-carboxylic acid (1H-indol-2-ylmethyl)-amide]	0.99	1060	–
Cc1c(O)cccc1C(=O)N[C@@H](Cc1ccccc1)[C@H](O)C(=O)N1CSC(C)(C)[C@H]1C(=O)NCc1cc2ccccc2o1 [Example A62, (R)-3-[(2S,3S)-2-Hydroxy-3-(3-hydroxy-2-methyl-benzoylamino)-4-phenyl-butyryl]-5,5-dimethyl-thiazolidine-4-carboxylic acid (benzofuran-2-ylmethyl)-amide]	9.6	2260	–
Cc1c(O)cccc1C(=O)N[C@@H](Cc1ccccc1)[C@H](O)C(=O)N1CSC(C)(C)[C@H]1C(=O)NCc1cc2ccccc2n1C [Example A63, (R)-3-[(2S,3S)-2-Hydroxy-3-(3-hydroxy-2-methyl-benzoylamino)-4-phenyl-butyryl]-5,5-dimethyl-thiazolidine-4-carboxylic acid (1-methyl-1H-indol-2-ylmethyl)-amide]	4.5	1190	–
Cc1ccccc1CNC(=O)[C@H]1N(C(=O)[C@@H](O)[C@H](Cc2ccccc2)NC(=O)c2cccc3c2CCCN3)CSC1(C)C [Example B2, 1,2,3,4-Tetrahydro-quinoline-5-carboxylic acid {(1S,2S)-1-benzyl-3-[(R)-5,5-dimethyl-4-(2-methyl-benzylcarbamoyl)-thiazolidin-3-yl]-2-hydroxy-3-oxo-propyl}-amide]	0.35	87	–
Cc1ccccc1CNC(=O)[C@H]1N(C(=O)[C@@H](O)[C@H](Cc2ccccc2)NC(=O)N2CC[C@@H](O)C2)CSC1(C)C [Example B3, 3-(2-hydroxy-3-{[1-(3-hydroxy-pyrrolidin-yl)-methanoyl]-amino}-4-phenyl-butanoyl)-5,5-dimethyl-thiazolidine-4-carboxylic acid-2-methyl-benzylamide]	2.5	–	905
Cc1ccccc1CNC(=O)[C@H]1N(C(=O)[C@@H](O)[C@H](Cc2ccccc2)NC(=O)CSc2nc[nH]n2)CSC1(C)C [Example B4, 3-{2-Hydroxy-4-phenyl-3-[2-(2H-[1,2,4t]triazol-3-ylsufanyl)-ethanoylamino]-butanoyl}5,5-dimethyl-thiazolidine-4-carboxylic acid-2-methyl-benzylamide]	3	707	–
Cc1ccccc1CNC(=O)[C@H]1N(C(=O)[C@@H](O)[C@H](Cc2ccccc2)NC(=O)O[C@@H]2CCS[C@@H]2C(C)C)CSC1(C)C [Example B5, {(1S,2S)-1-Benzyl-3-[(R)-5,5-dimethyl-4-(2-methyl-benzylcarbamoyl)-thiazolidin-3-yl]-2-hydroxy-3-oxo-propyl}-carbamic acid (R)-2-isopropyl-tetrahydro-thiophen-3-yl ester]	1.2	314	–
Cc1ccccc1CNC(=O)[C@H]1N(C(=O)[C@@H](O)[C@H](Cc2ccccc2)NC(=O)c2cccc3[nH]ccc23)CSC1(C)C [Example B8, 1H-Indole-4-carboxylic acid {(1S,2S)-1-benzyl-3-[(R)-5,5-dimethyl-4-(2-methyl-benzylcarbamoyl)-thiazolidin-3-yl]-2-hydroxy-3-oxo-propyl}-amide]	0.63	474	–
Cc1ccccc1CNC(=O)[C@H]1N(C(=O)[C@@H](O)[C@H](Cc2ccccc2)NC(=O)c2cccc3[nH]ncc23)CSC1(C)C [Example B9, 1H -Indazle-4-carboxylic acid {1-benzyl-3-[5,5-dimethyl-4-(2-methyl-benzylcarbamoyl)-thiazolidin-3-yl]-2-hydroxy-3-oxo-propyl}-amide]	1.1	452	–
C#CCOC(=O)N[C@@H](Cc1ccccc1)[C@H](O)C(=O)N1CSC(C)(C)[C@H]1C(=O)NCc1ccccc1C [Example B10, {(1S,2S)-1-Benzyl-3-[(R)-5,5-dimethyl-4-(2-methyl-benzylcarbamoyl)-thiazolidin-3-yl]-2-hydroxy-3-oxo-propyl}-carbamic acid prop-2-ynyl ester]	0.57	386	–
CCC(C)C(=O)N[C@@H](Cc1ccccc1)[C@H](O)C(=O)N1CSC(C)(C)[C@H]1C(=O)NCc1ccccc1C (stereo partly drawn) [Example B12, (R)-3-[(2S,3S)-2-Hydroxy-3-(2-methyl-butyrylamino)-4-phenyl-butyryl]-5,5-dimethyl-thiazolidine-4-carboxylic acid 2-methyl-benzylamide]	9.9	> 1000	–
C=CCNC(=O)N[C@@H](Cc1ccccc1)[C@H](O)C(=O)N1CSC(C)(C)[C@H]1C(=O)NCc1ccccc1C [Example B13, (R)-3-[(2S,3S)-3-(3-Allyl-ureido)-2-hydroxy-4-phenyl-butyryl]-5,5-dimethyl-thiazolidine-4-carboxylic acid 2-methyl-benzylamide]	2	1460	–
C=CCCOC(=O)N[C@@H](Cc1ccccc1)[C@H](O)C(=O)N1CSC(C)(C)[C@H]1C(=O)NCc1ccccc1C [Example B14, {(1S,2S)-1-Benzyl-3-[(R)-5,5-dimethyl-4-(2-methyl-benzylcarbamoyl)-thiazolidin-3-yl]-2-hydroxy-3-oxo-propyl}-carbamic acid but-3-enyl ester]	2.7	1660	–
Cc1ccccc1CNC(=O)[C@H]1N(C(=O)[C@@H](O)[C@H](Cc2ccccc2)NC(=O)C2CC2)CSC1(C)C [Example B15, 3-[(S)-3-(Cyclopropanecarbonyl-amino)-2-hydroxy-4-phenyl-butyryl]-5,5-dimethyl-thiazolidine-4-carboxylic acid 2-methyl-benzylamide]	1.3	2300	–
